From ChEMBL document CHEMBL1155826, “Refinement of histamine H3 ligands pharmacophore model leads to a new class of potent and selective naphthalene inverse agonists” (Bioorg Med Chem Lett, 2008) come the findings set out here.

Assay [1] addresses T1, Histamine H3 receptor (Homo sapiens, UniProt Q9Y5N1). Nature of the assay: Displacement of [3H]RAMH from human histamine H3 receptor expressed in CHO cells at 3 uM. The format is cell-based.
Assay [2] addresses T1, Histamine H3 receptor. In words: Displacement of [3H]RAMH from human histamine H3 receptor expressed in CHO cells. The format is cell-based.
Assay [3] has as its target T1, Histamine H3 receptor. Nature of the assay: Inverse agonist activity at human histamine H3 receptor expressed in CHO cells by GTPgammaS assay. Type of assay: functional, cell-based.
Assay [4] concerns the target Histamine H1 receptor (Homo sapiens) (UniProt P35367). In words: Inhibition of histamine H1 receptor at 3 uM.
Assay [5] deals with Histamine H2 receptor (Homo sapiens) (UniProt P25021). In words: Inhibition of histamine H2 receptor at 3 uM.
Assay [6] addresses Histamine H4 receptor (Homo sapiens) (UniProt Q9H3N8). In words: Inhibition of histamine H4 receptor at 3 uM.

T1 sequence (Q9Y5N1 whole entry): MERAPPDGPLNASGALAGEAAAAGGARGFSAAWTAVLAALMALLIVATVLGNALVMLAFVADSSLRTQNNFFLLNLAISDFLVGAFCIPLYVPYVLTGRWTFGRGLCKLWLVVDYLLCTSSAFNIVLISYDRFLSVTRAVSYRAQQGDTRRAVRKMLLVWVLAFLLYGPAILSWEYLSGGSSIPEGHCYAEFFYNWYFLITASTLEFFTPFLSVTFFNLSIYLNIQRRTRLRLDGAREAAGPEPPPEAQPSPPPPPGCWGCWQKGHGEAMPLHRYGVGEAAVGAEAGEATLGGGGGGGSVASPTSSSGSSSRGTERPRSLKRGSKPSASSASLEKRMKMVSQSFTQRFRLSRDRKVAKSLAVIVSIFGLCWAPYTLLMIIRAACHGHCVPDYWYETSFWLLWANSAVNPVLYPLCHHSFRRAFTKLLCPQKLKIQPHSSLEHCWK
Chain of Histamine H4 receptor (Homo sapiens) (Q9H3N8 whole entry): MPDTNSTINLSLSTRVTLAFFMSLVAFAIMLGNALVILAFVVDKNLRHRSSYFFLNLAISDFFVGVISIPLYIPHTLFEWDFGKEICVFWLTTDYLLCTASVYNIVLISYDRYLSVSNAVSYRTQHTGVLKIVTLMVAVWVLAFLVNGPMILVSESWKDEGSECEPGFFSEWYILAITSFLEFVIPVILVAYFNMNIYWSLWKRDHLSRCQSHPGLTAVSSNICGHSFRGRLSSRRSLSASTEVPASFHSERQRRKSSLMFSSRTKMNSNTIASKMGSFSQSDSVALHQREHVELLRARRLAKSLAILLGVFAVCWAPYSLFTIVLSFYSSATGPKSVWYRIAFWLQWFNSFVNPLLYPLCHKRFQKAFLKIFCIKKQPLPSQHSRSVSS
Chain of Histamine H2 receptor (Homo sapiens) (P25021 whole entry): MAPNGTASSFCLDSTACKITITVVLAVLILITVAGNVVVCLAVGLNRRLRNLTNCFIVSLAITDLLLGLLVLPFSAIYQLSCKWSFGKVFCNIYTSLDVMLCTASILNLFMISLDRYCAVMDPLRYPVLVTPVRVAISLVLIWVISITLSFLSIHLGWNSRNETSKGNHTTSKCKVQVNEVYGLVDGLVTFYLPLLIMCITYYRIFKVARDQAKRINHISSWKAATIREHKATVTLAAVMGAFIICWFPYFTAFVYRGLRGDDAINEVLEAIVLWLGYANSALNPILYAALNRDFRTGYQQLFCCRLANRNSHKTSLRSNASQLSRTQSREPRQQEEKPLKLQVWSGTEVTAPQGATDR
Chain of Histamine H1 receptor (Homo sapiens) (P35367 whole entry): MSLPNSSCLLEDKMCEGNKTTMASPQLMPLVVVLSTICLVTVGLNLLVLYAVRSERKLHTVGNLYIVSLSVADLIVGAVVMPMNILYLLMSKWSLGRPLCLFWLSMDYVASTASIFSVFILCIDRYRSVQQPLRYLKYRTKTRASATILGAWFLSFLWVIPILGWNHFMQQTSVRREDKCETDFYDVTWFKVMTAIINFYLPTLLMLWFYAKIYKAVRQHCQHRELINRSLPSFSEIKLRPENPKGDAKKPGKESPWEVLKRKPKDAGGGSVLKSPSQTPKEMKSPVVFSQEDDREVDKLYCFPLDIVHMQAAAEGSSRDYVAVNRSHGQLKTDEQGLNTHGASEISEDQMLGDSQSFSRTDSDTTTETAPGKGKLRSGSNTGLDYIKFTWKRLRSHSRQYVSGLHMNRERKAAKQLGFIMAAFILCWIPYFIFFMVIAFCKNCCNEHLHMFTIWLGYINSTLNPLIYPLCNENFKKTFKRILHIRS

In general, inhibition refers to the share of the control response that was lost under treatment. High values mean a strong effect, low ones a weak effect. `CC(C)N1CCC(Nc2ccc3cc(C(=O)NC4CCCCC4)ccc3c2)CC1` displayed an inhibition on Histamine H3 receptor [1] of 57%. Take `CC(C)N1CCC(Oc2ccc3c(C(=O)N4CCCC4)cccc3c2)CC1`: the inhibition at Histamine H3 receptor [1] turned out to be 53%. For orientation: Ki means the equilibrium dissociation constant of an inhibitor or competing ligand from its target. Low readings indicate higher affinity, high ones lower affinity. What is called EC50 is the midpoint of the concentration-response curve. With `CC(C)N1CCC(Oc2ccc3cc(C(=O)NC4CCCCC4)ccc3c2)CC1`, at Histamine H3 receptor [2], the affinity corresponds to a Ki of 87 nM. Also, the EC50 on Histamine H3 receptor [3] worked out at 21 nM. For the same compound, the inhibition in assay [4], in assay [5] and in assay [6] was less than 25% each time. In turn, `C[C@H]1CC[C@H](C)N1CCCOc1ccc(-c2ccc(C(=O)N3CCOCC3)cc2)cc1` (single isomer, unassigned) [A-349,821] came in with a Ki on Histamine H3 receptor [2] of 12 nM.

On to `O=C(c1cccc2cc(OCCCN3CCCCC3)ccc12)N1CCCC1`, for which, on Histamine H3 receptor [1], the inhibition was determined as 58%. At Histamine H3 receptor [1], `CC(C)N1CCC(Nc2ccc3cc(C(=O)N4CCOCC4)ccc3c2)CC1` had an inhibition of 61%. On to `CC(C)N1CCC(Oc2ccc3cc(C(=O)N4CCCC4)ccc3c2)CC1`, for which the Ki at Histamine H3 receptor [2] stood at 57 nM. `CC(C)N1CCC(Oc2ccc3c(C(=O)NC4CCCCC4)cccc3c2)CC1`: on Histamine H3 receptor [1], the inhibition was determined as 52%. For the compound `O=C(c1ccc2cc(OCCCN3CCCCC3)ccc2c1)N1CCCC1`, the Ki on Histamine H3 receptor [2] amounted to 4 nM.

Turning to `CC(C)N1CCC(Nc2ccc3cc(C(=O)N4CCCC4)ccc3c2)CC1`, the inhibition on Histamine H3 receptor [1] was 45%.

For the compound `c1ccc2c(Nc3ccc(OCCCN4CCCCC4)cc3)ccnc2c1`, at Histamine H3 receptor [2], the Ki amounted to 0.5 nM.
